Source: ChEMBL document CHEMBL5625211, “Neutral sphingomyelinase 2 inhibitors based on the pyrazolo[1,5-a]pyrimidin-3-amine scaffold” (Eur J Med Chem, 2023)

Experiments:
[1] = Drug concentration in Wistar rat plasma at 10 mg/kg, po measured after 30 mins by LC-MS/MS method; format: ADME, organism-based
[2] = Drug concentration in Wistar rat brain at 10 mg/kg, po measured after 30 mins by LC-MS/MS method; format: ADME, organism-based; conditions: in vivo, 0.5 h

concentration at 0.5 h [1]: > 2000 nM
Drug uptake [2]: Active
Structure (SMILES): CN(C)c1cnn2ccc(N3CCOCC3)nc12
